# Assays:
# [1] = Turbidimetric solubility assay; type: physicochemical; details: HEPES buffer with MgCl2 and CaCl2, aqueous buffer, kinetic from dmso stock; HEPES buffer 10 mM pH 7.4, MgCl2 2 mM, CaCl2 1 mM, 1.0% (v/v) DMSO; turbidity at 400 nm; read-out: Estimated Solubility
# Experimental: The final DMSO concentration in each sample was 1.0% (v/v). Increased turbidity (light scattering) was measured at 400 nm, since all compounds have absorbance peaks below this wavelength. Each sample was prepared and measured in triplicate. All measurements were done using a Hitachi U-2010 spectrophotometer.
# [2] = Dynamic light scattering (DLS), aggregation kinetics; type: physicochemical; details: 80 µM, HEPES buffer pH 7.4, 1.0% (v/v) DMSO
# Experimental: (iv) Dynamic light scattering (DLS): Particle size (mean zeta-average diameter D) for compound C was determined using a Zeta Plus Zeta-Potential Analyzer (Brookshaven Instruments Corporation, Hotsville, NY, USA) equipped with a 570 nm laser for dynamic light scattering at 90° [63]. Solutions of Compound C (80 µM) were prepared in HEPES buffer (10 mM), pH = 7.4. The final concentration of DMSO in each sample was 1.0% (v/v).
# human ecto-5′-NT [3] = target: T1, human ecto-5′-NT (Homo sapiens, UniProt P21589); experiment: Enzyme inhibition assay (without Triton X-100), malachite green method; type: biochemical; details: human ecto-5′-NT 3.6 nM; for Hill slope: concentration-inhibition curve, without Triton X-100; for IC50: AMP 500 µM, without Triton X-100, HEPES pH 7.4
# T1 construct: purchased OriGene Technologies, Inc (Rockville, MD, USA)
# T1 sequence (P21589 27-574): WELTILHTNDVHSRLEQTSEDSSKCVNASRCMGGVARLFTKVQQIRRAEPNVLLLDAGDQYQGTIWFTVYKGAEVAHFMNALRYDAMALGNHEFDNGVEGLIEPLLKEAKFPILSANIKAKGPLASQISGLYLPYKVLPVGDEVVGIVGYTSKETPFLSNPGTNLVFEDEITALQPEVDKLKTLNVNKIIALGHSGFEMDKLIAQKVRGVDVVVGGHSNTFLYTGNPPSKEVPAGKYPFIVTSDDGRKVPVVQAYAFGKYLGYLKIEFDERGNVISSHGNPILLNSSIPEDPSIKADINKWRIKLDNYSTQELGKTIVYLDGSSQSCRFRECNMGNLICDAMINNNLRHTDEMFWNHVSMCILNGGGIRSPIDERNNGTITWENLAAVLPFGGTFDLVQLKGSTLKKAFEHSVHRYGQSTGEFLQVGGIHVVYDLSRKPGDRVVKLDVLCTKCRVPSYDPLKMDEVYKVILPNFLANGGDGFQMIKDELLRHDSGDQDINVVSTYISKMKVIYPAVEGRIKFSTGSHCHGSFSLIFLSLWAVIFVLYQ
# Experimental: (§1) Enzyme inhibition assays (without Triton X-100). Following procedures described in the literature, with some modifications, all assays were carried out in a reaction mixture containing HEPES buffer (10 mM; pH = 7.4), MgCl2 (2 mM), CaCl2 (1 mM), human ecto-5′-NT (3.6 nM), AMP (500 µM) as substrate and variable concentration of each tested compound (from 0 to 500 µM for A and from 0 to 100 µM for B, C and D). Stock solutions of each compound were prepared in DMSO. The final concentration of DMSO in all samples/assays/experiments was 1.0% (v/v). Results were controlled for the effect of DMSO on enzymatic activity. After incubation for 10 min at 37.0 ± 0.2 °C, the reactions were stopped by heating the system for 5 min at 99.0 ± 0.2 °C. Inorganic phosphate concentrations were quantified spectrophotometrically (at λ = 630 nm), using the malachite green method, as described in the literature. Each experiment was done in triplicate. A four-parameter logistic non-linear regression model was used to fit the experimental data, using GraphPad Prism 7.0 (GraphPad, San Diego, CA, USA). From the corresponding fitted curves, we obtained the IC50 values, except when the minimum plateau value from the dose-response curve was far from zero. For such curves, IC50 ranges were estimated based on the inhibition (%) achieved at the maximum tested concentration.
# human ecto-5′-NT [4] = target: T1, human ecto-5′-NT; experiment: Non-ionic detergent-sensitivity evaluation: enzyme inhibition assay with 0.01% (v/v) Triton X-100; type: biochemical; details: human ecto-5′-NT 3.6 nM, AMP 500 µM, read-out: IC50 in the presence of 0.01% (v/v) Triton X-100
# Experimental: as §1
# (i) Non-ionic detergent-sensitivity evaluation: For each compound (A, B, C and D), enzyme inhibition assays were done, similarly as described above, using however Triton X-100 (a non-ionic detergent) at a final concentration of 0.01% (v/v) in the reaction mixture.
# human ecto-5′-NT [5] = target: T1, human ecto-5′-NT; experiment: Enzyme concentration sensitivity evaluation: enzyme inhibition assay at 36 nM enzyme; type: biochemical; details: human ecto-5′-NT 36 nM (10-fold increase), AMP 500 µM
# Experimental: as §1
# (ii) Enzyme concentration sensitivity evaluation: For each compound (A, B, C and D), enzyme inhibition assays were done, similarly as described above, but using human ecto-5′-NT at 36 nM (increased by 10-fold).
# [6] = Turbidity at 400 nm as a function of time; type: physicochemical; details: A 500 µM, B 100 µM, D 250 µM; HEPES buffer pH 7.4, 1.0% (v/v) DMSO; precipitates seen after 60 min
# Experimental: Additionally, turbidity at 400 nm as a function of time was followed for compounds A–D (Figure 6a). The concentration of each compound in these assays was near to the maximum that could be obtained, so that DMSO concentration was kept at 1.0% (v/v) in the assay buffer. […] In fact, after 60 min, precipitates at the bottom of the cuvettes were clearly observed by visual inspection (data not shown).
# Figure 6 (a) Turbidity at 400 nm as a function of time measured for compounds A, B, C and D (at 500 µM, 100 µM, 80 µM and 250 µM, respectively). Each solution was prepared in HEPES buffer (10 mM), containing MgCl2 (2 mM) and CaCl2 (1 mM), pH = 7.4. Final concentration of DMSO in each sample was 1.0% (v/v); (b) Mean diameter (D) values as a function of time for compound C (80 µM) as determined by DLS. A solution of C was prepared in HEPES buffer (10 mM), containing MgCl2 (2 mM) and CaCl2 (1 mM), pH = 7.4. Final concentration of DMSO in each sample was 1.0% (v/v).
# Turbidimetric assays were done using a Hitachi U-2010 spectrophotometer (Hitachi, Chiyoda, Tokyo, Japan). DLS analysis was done using a Zeta Plus Zeta-Potential Analyzer (Brookshaven Instruments Corporation, Hotsville, NY, USA) equipped with a 570 nm laser for dynamic light scattering at 90°. For enzymatic assays, absorbance measurements were done using a FlexStation 3 Multi-Mode Microplate Reader (Molecular Devices, LLC, San Jose, CA, USA).
solubility [1] [µM],Hill slope (human ecto-5′-NT [3]),IC50 (human ecto-5′-NT [3]) [µM],IC50 (human ecto-5′-NT [4]) [µM],IC50 (human ecto-5′-NT [5]) [µM],SMILES,Aggregate particle size (mean diameter) as a function of time by DLS [2],Turbidity at 400 nm as a function of time [6]
11.7,−3.19,16.3 ± 1.1,> 100,–,"CSc1nnc(NC(=O)c2cc(-c3cc(C)cc(C)c3O)n[nH]2)s1 [Compound C, 3-(2-hydroxy-3,5-dimethylphenyl)-N-[5-(methylsulfanyl)-1,3,4-thiadiazol-2-yl]-1H-pyrazole-5-carboxamide]",aggregate particle size slowly increased with time,–
–,–,29.7 ± 1.2,31.7 ± 1.2,27.2 ± 1.1,"Nc1ncnc2c1ncn2[C@@H]1O[C@H](COP(=O)(O)OP(=O)(O)O)[C@@H](O)[C@H]1O [ADP, adenosine diphosphate, reference compound]",–,–
8.8,−2.90,1.9 ± 1,2.3 ± 1.2,> 36,"O=C(Nc1nc2ccc(F)cc2s1)c1cc(-c2ccccc2O)n[nH]1 [B, N-(6-fluoro-1,3-benzothiazol-2-yl)-3-(2-hydroxyphenyl)-1H-pyrazole-5-carboxamide]",–,a decrease in turbidity is observed as a function of time
< 0.5,–,2.2 ± 1.2,> 36,> 36,"CS(=O)(=O)c1ccc2nc(NC(=O)c3cc(-c4ccccc4O)[nH]n3)sc2c1 [Compound D, 5-(2-hydroxyphenyl)-N-(6-methanesulfonyl-1,3-benzothiazol-2-yl)-1H-pyrazole-3-carboxamide]",–,a decrease in turbidity is observed as a function of time
79.1,−2.75,82.9 ± 1.1,> 500,–,"O=C(COC(=O)c1n[nH]c2ccccc12)Nc1c(F)cccc1F [Compound A, [(2,6-difluorophenyl)carbamoyl]methyl 1H-indazole-3-carboxylate]",–,a decrease in turbidity is observed as a function of time

# Source: paper PMC6222861, “Be Aware of Aggregators in the Search for Potential Human ecto-5′-Nucleotidase Inhibitors” (Molecules : A Journal of Synthetic Chemistry and Natural …, 2018)
